Legend:
[1] = tested on: acetylcholine-induced bronchospasm; test: Acetylcholine-induced bronchospasm in anaesthetised, spontaneously breathing guinea pigs, intravenous administration; format: in vivo, guinea pig (Pirbright White); conditions: for Mean bronchospasmolytic activity, percentage increase of Vmaxe vs control spasm / Mean bronchospasmolytic activity, percentage increase of tidal volume (TV) vs control spasm: 0-60 min; for Mean bronchospasmolytic activity, percentage increase of Vmaxe vs control spasm / Mean bronchospasmolytic activity, percentage increase of tidal volume (TV) vs control spasm / Bronchospasmolytic activity, percentage increase of Vmaxe vs control spasm / Bronchospasmolytic activity, percentage increase of tidal volume (TV) vs control spasm: x±SEM, N=10; for Bronchospasmolytic activity, percentage increase of Vmaxe vs control spasm / Bronchospasmolytic activity, percentage increase of tidal volume (TV) vs control spasm: at 60 min
Excerpt: Effect of Intravenously Administered Telenzepine on Acetylchline-Induced Bronchospasms in Anaesthetised, Spontaneously Breathing Guinea Pigs
Method for simultaneously recording pharmacodynamic or toxic effects on interior sensitive receptors and the respiration of guinea pigs (U. Kilian, E. Muller, E. Ch. Dittmann and J. Hamacher, Arzneim.-Forsch. 28, 1699-1708, 1978).
Pirbright White, Interfauna (Tuttlingen), 350-450 g, male.
Ethylurethane 1.2 g/kg i.p. as 12.5% aqueous solution.
Pneumotachogram: Maximum flow velocities of the respiratory air during expiration (Vmaxe, "peak flow"), tidal volume (TV).
Acetylcholine as spasmogen, 0.2-0.3 μmol/kg i.v., dissolved in 0.9% NaCl.
-10 min control spasm, 0 min administration of substance, +2, +10, +20, +30, +60 min test spasms.
Determination of the effect of telenzepine on the parameters (mean and standard error of mean, n=10) and calculation of the bronchospasmolytic activity from this as percentage inhibition of the acetylcholine-induced decrease of Vmaxe and TV by means of time/effect curves. Computation of a dose/response curve of the mean bronchospasmolytic activity during the observation time (0-60 min) from the areas under the time/effect curves and reading of 1 h ED50 values. Determination of a dose/response curve of the bronchospasmolytic activity at time 60 min and reading ED50 values.

[2] = molecular target: M1 receptor (ganglionic); test: Receptor affinity, electrically stimulated rabbit vas deferens in organ bath; conditions: vas deferens of the rabbit, agonist McN-A-343, Schild slope normalised to 1.00; listed as Compound 3
Experimental: Isometric contractions (HSE force transducer, K-30; tilt and zones, BD-9 chart recorder) of isolated seminal duct sections of rabbits (male, white New Zealand rabbits, 2.5-3.5 kg) were recorded in an organ bath (10 ml, 31° C., gassing with carbogen, initial tension of the organs 0.75 g) under electrical stimultion (HSE stimulator; hook-shaped Pt electrode 1 cm below the water surface of the bath; 30 V, 0.5 ms, 0.05 Hz). After an equilibration time of 30 minutes, cumulative dose/response curves of McN-A-343 (10^-7 -2×10^-6 M) were recorded simultaneously on 8 organ sections in each case (control curves), using the technique described by van Rossum (1963). After 3 control curves, a fixed concentration of the agonist (for example 5×10^-7, 10^-6, 3×10^-6, 10^-5 or 3×10^-5 M) per organ section was applied and, after stabilisation of the effect, increasing concentrations of the agonist to be tested were added. The nutrient solution used had the following composition (mM): NaCl 118, KCl 4.7, CaCl2 ·2H2 O 2.5, MgSO4 ·7H2 O 0.6, KH2 PO 4 1.2, NaHCO3 25.0 and glucose 11.1. In order to block α2 -adrenoreceptors, the nutrient solution additionally contained 10^-6 M yohimbine.

[3] = molecular target: T1, M2 receptor (cardiac) (Rattus norvegicus, UniProt P10980); test: Receptor affinity, electrically stimulated left atrium of the rat; conditions: agonist carbachol, Schild slope normalised to 1.00, read-out: pA2 ± SEM, M2 receptor (cardiac) (converted)
T1 construct: isolated, left atria of rats (male 250-350 g); from tissue; host or cells: rat left atrium (isolated, male rats 250-350 g)
T1 sequence (P10980 1-466): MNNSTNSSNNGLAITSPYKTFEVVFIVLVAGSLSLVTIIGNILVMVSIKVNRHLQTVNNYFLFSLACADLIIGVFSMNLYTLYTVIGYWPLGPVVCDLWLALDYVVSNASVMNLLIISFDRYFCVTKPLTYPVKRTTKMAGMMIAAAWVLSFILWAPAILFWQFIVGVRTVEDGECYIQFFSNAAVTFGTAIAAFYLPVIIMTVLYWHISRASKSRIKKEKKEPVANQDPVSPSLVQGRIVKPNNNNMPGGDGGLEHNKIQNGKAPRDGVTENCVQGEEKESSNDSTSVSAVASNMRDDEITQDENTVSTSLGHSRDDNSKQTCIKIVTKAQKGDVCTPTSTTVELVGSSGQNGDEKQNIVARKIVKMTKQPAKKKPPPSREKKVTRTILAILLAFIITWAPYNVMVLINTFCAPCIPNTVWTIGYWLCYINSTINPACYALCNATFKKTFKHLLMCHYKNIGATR
Excerpt: The affinity of (±)-4,9-dihydro-3-methyl-4-[(4-methyl-1-piperazinyl)-acetyl]-10H-thieno[3,4-b][1,5]benzodiazepin-10-one (telenzepine, compound 2 in Table 7) and its conformers [(+)-enantiomer=compound 1, (-)-enantiomer=compound 3] to muscarinic M1 (ganglionic type) and M2 (cardiac type) receptors was investigated by the following methods:
Electrically Stimulated Left Atrium of the Rat (Eltze et al., 1985, Europ. J. Pharmacol. 112, 211-224).
Isometric contractions (HSE force transducer, K-30; Watanabe Linear Corder Mark 5) of isolated, left atria of rats (male 250-350 g) were recorded in an organ bath (10 ml, Tyrode nutrient solution, 31° C., gassing with carbogen, initial tension of the organs 0.25 g) under electrical stimulation (HSE stimulator; hook-shaped Pt electrodes at the base of the bath and immersed, annular Pt electrodes 1 cm below the water surface of the bath; 7 V, 3 ms, 2 Hz). After an equilibration time of 30 minutes, cumulative dose/response curves of carbachol (10^-8 -10^-6 M, in the presence of the antagonist also up to 10^-5 or 10^-4 M) were recorded simultaneously on 4 organs in each case by the technique described by van Rossum (1963). The substance to be tested was added to the organ baths 20 minutes before application of the carbachol. The pauses between the individual dose/response curves were 30-45 minutes.
The Tyrode nutrient solution used had the following composition (mM): NaCl 130, KCl 2.0, CaCl2 ·2H2 O 1.8, MgCl2 ·6H2 O 0.98, NaHCO3 12.0, NaH2 PO4 0.42 and glucose monohydrate 5.6. pA2 values (-log of the molar dissociation constants of the competitive antagonist-receptor complex) were determined by linear regression using the Schild plot: pA2 =-log [B/(x-1)], (Arunlakshana and Schild, 1959).
Table 7 below gives pA2 values of the substances, for which the slope of the regression lines for theoretically competitive antagonism have been normalised to 1.00 (Tallarida et al., 1979).

[4] = tested on: modified Shay rat (lesion formation and acid secretion); test: Antiulcerogenic and secretion-inhibiting action on the modified Shay rat; format: in vivo
Excerpt: The excellent gastric protective action and the gastric secretion-inhibiting action of the compound (+)-4,9-dihydro-3-methyl-4-[(4-methyl-1-piperazinyl)-acetyl]-10H-thieno[3,4-b][1,5]benzodiazepin-10-one (=compound 1 in Table 8 below) in comparison with the corresponding (-)-enantiomer (=compound 3) and with the racemate (=compound 2) can be detected in studies on the modified Shay rat. The effect of the stated compounds after intravenous (i.v.) administration on the formation of lesions and the acid secretion in the modified Shay rat is shown in Table 8 below.
Ulcers are provoked in rats (female, 180-200 g, 4 animals per cage on high grids) which have fasted for 24 hours, by pylorus ligature (under diethyl ether anaesthesia) and oral administration of 100 mg/10 ml/kg of acetylsalicylic acid. The substances to be tested are administered intravenously (1 ml/kg) directly after the pylorus ligature. The wound is closed by means of Michel clamps. 4 hours afterwards, the animals are sacrificed under anaesthesia with ether by Atlas dislocation, and resection of the stomach.
The stomach is opened along the greater curvature and clamped to a cork sheet, the amount of secreted gastric juice (volume) is determined first and its HCl content (titration with sodium hydroxide solution) being determined subsequently. The number and size (=diameter) of ulcers present are determined using a stereomicroscope, under 10×magnification. The product of severity (according to the following point scale) and number of ulcers serves as an individual lesion index.
The reduction in the means lesion index of each treated group compared with the control group (=100%) serves as a measure of the antiulcerogenic effect. The ED50 is the dose which reduces the mean lesion index or the HCl secretion by 50% compared with the control.

[5] = at time 60 min after administration, 60 min
[6] = modified Shay rat, i.v., interpolated dose, 4 h, N=24, listed as 3, 240 min

- pA2 ± SEM, M1 receptor (ganglionic) [2]: 6.98 ± 0.14
- Kb [3]: 759 nM
SMILES: Cc1scc2c1N(C(=O)CN1CCN(C)CC1)c1ccccc1NC2=O [(-)-telenzepine, (-)-4,9-dihydro-3-methyl-4-[(4-methyl-1-piperazinyl)-acetyl]-10H-thieno-[3,4-b][1,5]benzodiazepin-10-one]
- Mean bronchospasmolytic activity, percentage increase of Vmaxe vs control spasm ([1]; 0.1 μmol/kg i.v.): 2 ± 1%
- Mean bronchospasmolytic activity, percentage increase of tidal volume (TV) vs control spasm ([1]; 0.1 μmol/kg i.v.): 0 ± 2%
- Mean bronchospasmolytic activity, percentage increase of Vmaxe vs control spasm ([1]; 1 μmol/kg i.v.): 17 ± 3%
- Mean bronchospasmolytic activity, percentage increase of tidal volume (TV) vs control spasm ([1]; 1 μmol/kg i.v.): 20 ± 5%
- Mean bronchospasmolytic activity, percentage increase of Vmaxe vs control spasm ([1]; 5 μmol/kg i.v.): 65 ± 4%
- Mean bronchospasmolytic activity, percentage increase of tidal volume (TV) vs control spasm ([1]; 5 μmol/kg i.v.): 74 ± 4%
- Mean bronchospasmolytic activity, percentage increase of Vmaxe vs control spasm ([1]; 10 μmol/kg i.v.): 79 ± 2%
- Mean bronchospasmolytic activity, percentage increase of tidal volume (TV) vs control spasm ([1]; 10 μmol/kg i.v.): 87 ± 2%
- Mean bronchospasmolytic activity, percentage increase of Vmaxe vs control spasm ([1]; 30 μmol/kg i.v.): 89 ± 3%
- Mean bronchospasmolytic activity, percentage increase of tidal volume (TV) vs control spasm ([1]; 30 μmol/kg i.v.): 98 ± 3%
- Bronchospasmolytic activity, percentage increase of Vmaxe vs control spasm ([1]; 0.1 μmol/kg i.v.): 1 ± 1%
- Bronchospasmolytic activity, percentage increase of tidal volume (TV) vs control spasm ([1]; 0.1 μmol/kg i.v.): -3 ± 3%
- Bronchospasmolytic activity, percentage increase of Vmaxe vs control spasm ([1]; 1 μmol/kg i.v.): 18 ± 3%
- Bronchospasmolytic activity, percentage increase of tidal volume (TV) vs control spasm ([1]; 1 μmol/kg i.v.): 22 ± 5%
- Bronchospasmolytic activity, percentage increase of Vmaxe vs control spasm ([1]; 5 μmol/kg i.v.): 77 ± 5%
- Bronchospasmolytic activity, percentage increase of tidal volume (TV) vs control spasm ([1]; 5 μmol/kg i.v.): 88 ± 6%
- Bronchospasmolytic activity, percentage increase of Vmaxe vs control spasm ([1]; 10 μmol/kg i.v.): 77 ± 3%
- Bronchospasmolytic activity, percentage increase of tidal volume (TV) vs control spasm ([1]; 10 μmol/kg i.v.): 89 ± 3%
- Bronchospasmolytic activity, percentage increase of Vmaxe vs control spasm ([1]; 30 μmol/kg i.v.): 88 ± 4%
- Bronchospasmolytic activity, percentage increase of tidal volume (TV) vs control spasm ([1]; 30 μmol/kg i.v.): 94 ± 3%
- ED50 of bronchospasmolytic activity, TV [1, 5]: 2.0 μmol/kg i.v.
- ED50 of bronchospasmolytic activity, Vmaxe [1, 5]: 3.2 μmol/kg i.v.
- onset of efficacy ([1]; doses between 0.1 and 1 μmol/kg i.v.): significantly delayed
- ED50 of mean bronchospasmolytic activity, TV ([1]; mean activity 0-60 min, 60 min): 2.5 μmol/kg i.v.
- ED50 of mean bronchospasmolytic activity, Vmaxe ([1]; mean activity 0-60 min, 60 min): 3.1 μmol/kg i.v.
- Inhibition (of acid secretion) following 3 mg ([4]; 3 mg (i.v.), footnote to the ED50 of HCl secretion): 46%
- Gastric protective action, reduction of lesion index, about ED50 [4, 6]: ~0.65 mg/kg i.v.
- Inhibition of acid secretion, reduction of HCl secretion, about ED50 [4, 6]: ~3.0 mg/kg i.v.

— patent US5140025A, “Thienotricylene for the treatment of bronchial diseases” (BYK Gulden Lomberg Chemische Fabrik GmbH, priority 1987, dated 1992)
